Source: patent US20260297095A1, “NOVEL PYRROLOTRIAZINE DERIVATIVE AND USE THEREOF” (Pelemed Co., Ltd., priority 2024, published 2026)

How the values were obtained:
YES1 kinase = YES1 kinase (Homo sapiens, UniProt P07947); assay: YES1 kinase inhibition, ADP Glo assay (Promega); assay type: biochemical; conditions: for inhibition at 0.01 µM: compound 10 nM, read-out: YES1 enzyme, % inhibition, 10 nM; for inhibition at 0.1 µM: compound 100 nM, read-out: YES1 enzyme, % inhibition, 100 nM; for IC50: class symbols, read-out: YES1 enzyme, IC50; for YES1 kinase inhibition at 1 nM (in words) / inhibition at 0.001 µM: compound 1 nM; for inhibition at 0.001 µM: read-out: YES1 enzyme, % inhibition, 1 nM
YES1 kinase, sequence (P07947 whole entry): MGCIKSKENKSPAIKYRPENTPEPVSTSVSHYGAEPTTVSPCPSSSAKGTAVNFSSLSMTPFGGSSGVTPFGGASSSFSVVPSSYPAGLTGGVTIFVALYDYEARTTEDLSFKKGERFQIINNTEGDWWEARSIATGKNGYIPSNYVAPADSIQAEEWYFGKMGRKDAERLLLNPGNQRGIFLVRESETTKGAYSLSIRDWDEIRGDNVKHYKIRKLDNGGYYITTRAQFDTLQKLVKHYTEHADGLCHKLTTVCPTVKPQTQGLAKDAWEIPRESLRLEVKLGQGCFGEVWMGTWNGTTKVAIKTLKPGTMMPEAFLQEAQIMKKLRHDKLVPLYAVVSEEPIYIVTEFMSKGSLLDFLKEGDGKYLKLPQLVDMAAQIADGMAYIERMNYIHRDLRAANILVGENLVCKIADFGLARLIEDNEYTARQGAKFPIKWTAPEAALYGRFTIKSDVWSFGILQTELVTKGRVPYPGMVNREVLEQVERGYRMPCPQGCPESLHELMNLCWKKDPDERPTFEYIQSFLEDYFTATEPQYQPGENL
Description: To evaluate the inhibitory activity against YES1 kinase of the compound according to the present invention, ADP Glo assay (Promega) was used, and the following method was performed with reference to the Promega kinase enzyme system protocol. To proceed with the experiment, buffers A-F and compound dilution plates were required.
To prepare A.4X reaction buffer, 800 μl of 5X reaction buffer and 200 μl of distilled water were used. To prepare B.4X kinase buffer, 996.6 μl of A.4X reaction buffer, 2 μl of 0.1M DTT, and 3.2 μl of 2.5M MnCl2 were added and mixed. To prepare C.1X kinase buffer (containing 5% DMSO) used for compound dilution, 250 μl of B.4X kinase buffer, 700 μl of distilled water, and 50 μl of DMSO were added, so that the final DMSO concentration became 5%. Then, 10 mM compounds were diluted 100-fold to prepare 100 μM solutions, and then D.5X inhibitor solution was prepared so that the compound concentration became 5 uM. Using a 96-well plate, 5 μM compounds were 3-fold diluted using C.1X kinase buffer (containing 5% DMSO) to prepare compound plates with concentrations ranging from 0.25 μM to 5 μM. The resulting plates were stored at room temperature. To prepare E. 2.5X ATP/substrate mixture, 50 μl of B.4X kinase buffer, 50 μl of […], and 100 μl of substrate were mixed. To prepare F YES1 kinase enzyme solution, 35 μl of B.4X kinase buffer, 0.4 μl of YES1 enzyme, and 104.6 μl of distilled water were used. Once the diluted compound plates, ATP/substrate mixture, and YES1 kinase solution were all prepared, 3 μL each was transferred from the diluted compound plate to a luciferase 96-well white plate (Since the total volume of the ATP/substrate and YES1 kinase solution that reacts with the compound is 15 μL, the compounds were diluted 5-fold, making the final compound concentration 0.05 μM-1 μM). Then, 6 μL of F. YES1 Kinase Enzyme Solution was transferred to each well, pipetted 10 times to mix, and incubated at room temperature in a shaker for 10 minutes. Next, 6 μL of E. 2.5X ATP/Substrate Mixture was transferred to each well, pipetted 10 times to mix, and centrifuged at 12,000 rpm for 5 minutes. The plate was then incubated in a shaker at room temperature for 40 minutes. After that, 15 μL of ADP-Glo Reagent, dissolved at room temperature, was added to each well, pipetted 10 times, and incubated in a shaker at room temperature for 40 minutes. Finally, 30 μL of Kinase Detection Reagent, dissolved at room temperature, was added, pipetted 10 times, incubated in a shaker at room temperature for 30 minutes. Luminescence was measured using a luminescence plate reader. Then, the background value was subtracted from all measured values, and the YES1 kinase activity at compound concentrations of 1 nM, 10 nM, and 100 nM was calculated. The measured values were calculated as percentages using the average value of the negative control. Graphs were drawn using GraphPad Prism, and the enzyme activity was calculated as a percentage of YES1 kinase inhibition at compound concentrations of 1 nM, 10 nM, and 100 nM. IC50 values were obtained using Microsoft Excel.

[1] = system: KYSE-70 esophageal cancer cell line; assay: Cell growth inhibition of KYSE-70 (Sulforhodamine B); assay type: cell-based; conditions: Homo sapiens; KYSE-70, 72 hours; read-out: KYSE70 GI50
In short: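 KYSE-70 cells (YES1-amplified) in RPMI-1640 with 10% FBS were seeded 24 h before treatment with compound at 0.0046–10 µM final. After 72 h, cells were TCA-fixed and stained with sulforhodamine B, with absorbance read at 510 nm. GI50 was derived with a time-zero plate set to 0% and the vehicle control to 100%, in duplicate tests.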

SMILES | inhibition at 0.01 µM (YES1 kinase) [%] | inhibition at 0.1 µM (YES1 kinase) [%] | GI50 [1] [nM] | IC50 (YES1 kinase) [nM] | inhibition at 0.001 µM (YES1 kinase) [%] | YES1 kinase inhibition at 1 nM (in words) (YES1 kinase)
COc1cc(-c2cc(-c3ccc4c(c3)oc(=O)n4C)n3ncnc(N)c23)ccc1NC(=O)OC(C)(C)C [Example 9, tert-butyl (4-(4-amino-7-(3-methyl-2-oxo-2,3-dihydrobenzo[d]oxazol-6-yl)pyrrolo[2,1-f][1,2,4]triazin-5-yl)-2-methoxyphenyl)carbamate] | 39 | 57 | 1000 to 10000 | – | – | –
COc1cc(-c2cc(N3CCC4(CCN(C)C4)CC3)n3ncnc(N)c23)ccc1NC(=O)OC(C)(C)C [Example 22, tert-butyl (4-(4-amino-7-(2-methyl-2,8-diazaspiro[4.5]decan-8-yl)pyrrolo[2,1-f][1,2,4]triazin-5-yl)-2-methoxyphenyl)carbamate] | 60 | 87 | 100 to 1000 | – | – | –
COc1cc(-c2cc(-c3ccc(N(C)C)cc3C)n3ncnc(N)c23)ccc1NC(=O)OC(C)(C)C [Example 2, tert-butyl (4-(4-amino-7-(4-(dimethylamino)-2-methylphenyl)pyrrolo[2,1-f][1,2,4]triazin-5-yl)-2-methoxyphenyl)carbamate] | 21 | 28 | > 10000 | – | – | –
COc1cc(-c2c(C)c(N3CCC(N)CC3)n3ncnc(N)c23)ccc1NC(=O)OC(C)(C)C [Example 74, tert-butyl (4-(4-amino-7-(4-aminopiperidin-1-yl)-6-methylpyrrolo[2,1-f][1,2,4]triazin-5-yl)-2-methoxyphenyl)carbamate] | 66 | – | ≤ 100 | ≤ 100 | 43 | could be inhibited even at a low concentration of 1 nM
COc1cc(-c2cc(N3CCC(CC(=O)O)CC3)n3ncnc(N)c23)ccc1NC(=O)OC(C)(C)C [Example 101, 2-(1-(4-amino-5-(4-((tert-butoxycarbonyl)amino)-3-methoxyphenyl)pyrrolo[2,1-f][1,2,4]triazin-7-yl)piperidin-4-yl)acetic Acid] | 40 | – | > 10000 | – | 16 | could be inhibited even at a low concentration of 1 nM
COc1cc(-c2cc(N3CC(C)C(N)C(C)C3)n3ncnc(N)c23)ccc1NC(=O)OC(C)(C)C (centres unmarked) [Example 91, tert-butyl (4-(4-amino-7-(4-amino-3,5-dimethylpiperidin-1-yl)pyrrolo[2,1-f][1,2,4]triazin-5-yl)-2-methoxyphenyl)carbamate] | 21 | 59 | 100 to 1000 | – | – | –
COc1cc(-c2cc(N3CC4CC3CC4N)n3ncnc(N)c23)ccc1NC(=O)OC(C)(C)C (centres unmarked) [Example 51, tert-butyl (4-(4-amino-7-(5-amino-2-azabicyclo[2.2.1]heptan-2-yl)pyrrolo[2,1-f][1,2,4]triazin-5-yl)-2-methoxyphenyl)carbamate] | 70 | 90 | 100 to 1000 | – | – | –
COc1cc(-c2cc(N3CCC(N(C)C)CC3)n3ncnc(N)c23)ccc1NC(=O)OC(C)(C)C [Example 15, tert-butyl (4-(4-amino-7-(4-(dimethylamino)piperidin-1-yl)pyrrolo[2,1-f][1,2,4]triazin-5-yl)-2-methoxyphenyl)carbamate] | 67 | 88 | ≤ 100 | – | – | –
COc1cc(-c2cc(N3CCC(CN)CC3)n3ncnc(N)c23)ccc1NC(=O)OC(C)(C)C [Example 59, tert-butyl (4-(4-amino-7-(4-(aminomethyl)piperidin-1-yl)pyrrolo[2,1-f][1,2,4]triazin-5-yl)-2-methoxyphenyl)carbamate] | 56 | 80 | 100 to 1000 | ≤ 100 | – | –
COc1cc(-c2cc(N3CCC(N)C(C)C3)n3ncnc(N)c23)ccc1NC(=O)OC(C)(C)C (centres unmarked) [Example 48, tert-butyl (4-(4-amino-7-(4-amino-3-methylpiperidin-1-yl)pyrrolo[2,1-f][1,2,4]triazin-5-yl)-2-methoxyphenyl)carbamate] | 70 | 96 | ≤ 100 | – | – | –
COc1cc(-c2cc(N3CCC4(CN(C)C4)C3)n3ncnc(N)c23)ccc1NC(=O)OC(C)(C)C [Example 37, tert-butyl (4-(4-amino-7-(2-methyl-2,6-diazaspiro[3.4]octan-6-yl)pyrrolo[2,1-f][1,2,4]triazin-5-yl)-2-methoxyphenyl)carbamate] | 24 | 69 | 100 to 1000 | – | – | –
COc1cc(-c2cc(N3CCC4(CCNC4=O)CC3)n3ncnc(N)c23)ccc1NC(=O)OC(C)(C)C [Example 53, tert-butyl (4-(4-amino-7-(1-oxo-2,8-diazaspiro[4.5]decan-8-yl)pyrrolo[2,1-f][1,2,4]triazin-5-yl)-2-methoxyphenyl)carbamate] | 29 | 60 | ≤ 100 | – | – | –

More lines, main results first:

inhibition at 0.01 µM (YES1 kinase) [%] | inhibition at 0.1 µM (YES1 kinase) [%] | GI50 [1] [nM] | IC50 (YES1 kinase) [nM] | inhibition at 0.001 µM (YES1 kinase) [%] | SMILES | YES1 kinase inhibition at 1 nM (in words) (YES1 kinase)
64 | 90 | ≤ 100 | – | – | CN(C)C1CCN(c2cc(-c3ccc(Oc4ccccc4)cc3)c3c(N)ncnn23)CC1 [Example 136, 7-(4-(dimethylamino)piperidin-1-yl)-5-(4-phenoxyphenyl)pyrrolo[2,1-f][1,2,4]triazin-4-amine] | –
66 | 81 | 100 to 1000 | ≤ 100 | – | CCNC1CCN(c2cc(-c3ccc(NC(=O)OC(C)(C)C)c(OC)c3)c3c(N)ncnn23)CC1 [Example 92, tert-butyl (4-(4-amino-7-(4-(ethylamino)piperidin-1-yl)pyrrolo[2,1-f][1,2,4]triazin-5-yl)-2-methoxyphenyl)carbamate] | –
41 | 78 | ≤ 100 | ≤ 100 | – | COc1cc(-c2cc(N3CCC(N)C(C)(C)C3)n3ncnc(N)c23)ccc1NC(=O)OC(C)(C)C (centres unmarked) [Example 94, tert-butyl (4-(4-amino-7-(4-amino-3,3-dimethylpiperidin-1-yl)pyrrolo[2,1-f][1,2,4]triazin-5-yl)-2-methoxyphenyl)carbamate] | –
39 | 64 | 100 to 1000 | – | – | COc1cc(-c2cc(NCC3CCNCC3)n3ncnc(N)c23)ccc1NC(=O)OC(C)(C)C [Example 117, tert-butyl (4-(4-amino-7-((piperidin-4-ylmethyl)amino)pyrrolo[2,1-f][1,2,4]triazin-5-yl)-2-methoxyphenyl)carbamate] | –
27 | 66 | 100 to 1000 | – | – | COc1cc(-c2cc(N3CCC(NC(C)=O)CC3)n3ncnc(N)c23)ccc1NC(=O)OC(C)(C)C [Example 103, tert-butyl (4-(7-(4-acetamidopiperidin-1-yl)-4-aminopyrrolo[2,1-f][1,2,4]triazin-5-yl)-2-methoxyphenyl)carbamate] | –
51 | – | ≤ 100 | ≤ 100 | 37 | COc1cc(-c2cc(N3CCC(CCN(C)C)CC3)n3ncnc(N)c23)ccc1NC(=O)OC(C)(C)C [Example 109, tert-butyl (4-(4-amino-7-(4-(2-(dimethylamino)ethyl)piperidin-1-yl)pyrrolo[2,1-f][1,2,4]triazin-5-yl)-2-methoxyphenyl)carbamate] | –
45 | – | 100 to 1000 | – | 33 | COc1cc(-c2cc(N3CCC(CN)C(C)(C)C3)n3ncnc(N)c23)ccc1NC(=O)OC(C)(C)C (centres unmarked) [Example 104, tert-butyl (4-(4-amino-7-(4-(aminomethyl)-3,3-dimethylpiperidin-1-yl)pyrrolo[2,1-f][1,2,4]triazin-5-yl)-2-methoxyphenyl)carbamate] | could be inhibited even at a low concentration of 1 nM
